Data: patent publication US20110028554A1, “PHARMACEUTICAL COMPOSITIONS COMPRISING DIIODOTHYRONINE AND THEIR THERAPEUTIC USE” (UNIVERSITE JOSEPH FOURIER, priority 2007, published 2011)
“Also recorded” adds a separate entry of the source.

Legend:
[1] = Body composition (adipose tissues, skeletal muscles, brown adipose tissue) of Wistar rats; format: in vivo
From the text: At the end of the experimental period, animals were sacrificed by decapitation, in order to avoid the well-known effects of general anesthetics on mitochondrial metabolism. Blood, samples were immediately collected and plasma was frozen for subsequent determination of serum metabolites and hormones. Liver, muscles and fat depots were quickly excised and weighed. Liver median lobe was rapidly freeze-clamped. Muscles (plantaris, soleus and gastrocnemius) were frozen in isopentane precooled in liquid nitrogen. Mesenteric fat consisted, of adipose tissue surrounding the gastro-intestinal tract from the gastro-oesophageal sphincter to the end of the rectum with special care taken in distinguishing and removing the pancreas. Retroperitoneal fat pad was taken as the distinct depot behind each kidney along the lumbar muscles. Epididymal fat consisted, of adipose tissue on top of the epididymis. For subcutaneous depot measurement, a rectangular piece of skin was taken on the right side of each animal from the median line of the abdomen between the spine and the right hip to the first rib. Interscapular brown adipose tissue was removed and dissected free from adjacent muscles and white adipose tissue. The heart ventricles, the right kidney and the spleen were also excised, weighed and frozen.

[2] = Indirect calorimetry (energy expenditure, respiratory quotient) in Wistar rats; format: in vivo; conditions: low dosage 2.5 μg/100 g BW
From the text: Energy expenditure as well as the nature of substrate oxidized (carbohydrates or lipids) were investigated by indirect calorimetry. This principle is based on the determinations of CO2, release (VCO2) and O2 consumption (VO2) by each animal. It assumes that O2 is entirely involved in substrate oxidation in the respiratory chain (leading to water production) while CO2 release is related to substrate decarboxylation (in the Kreb's cycle). These measurements allow assessing energy expenditure (EE) and respiratory quotient ([…], RQ). EE represent the absolute energy dissipation during rest and activity. RQ is a relative measurement indicating the ratio of carbohydrate versus lipid involved in oxidative pathway. A ratio of 1.0 indicates exclusive carbohydrate oxidation while a ratio of 0.7 indicates exclusive lipid oxidation. Each value between these two extreme values indicates the relative proportion of each substrate (of note protein oxidation was not evaluated). As an example, RQ approaches 0.7 during fasting, indicating lipid oxidation, conversely after feeding RQ increases close to 1 indicating carbohydrate oxidation resulting from food intake and blood insulin rise. Likewise, animals fed high-carbohydrate diets have higher RQs than those fed high-fat diets.
The indirect calorimetry system (Panlab, Barcelona, Spain) consists of cages, pumps, flow controllers, valves, and analyzers. […]

[3] = Blood glucose in Goto-Kakizaki (GK) rats; format: in vivo; conditions: low dosage 2.5 μg/100 g BW, 10 days, n=5, p<0.01
Method: Rats were genetically obese normoglycemic (Zucker or Fa/Fa), 10-11 week-old diabetic rats (ZDF) or genetic non-overweight diabetic (type 2 diabetes) rats (Goto-Kakizaki (GK) model).
The day of the study, after a fasted period overnight (18 h), blood samplings will be taken in awake rats from the tail vein.
Glucose and 3-hydroxybutyrate (3-HB) were measured, enzymatically and non esterified fatty acid (NEFA) by colorimetric assay (Wako Chemicals).

[4] = Food intake of Wistar rats; format: in vivo
Method: (§1) Adult male rat bred in the animal room facilities of Laboratory of Fundamental and Applied. Bioenergetics (Wistar strain) or purchased from Charles-River Laboratories, Domaine des oncins, L'ARBRESLE France [(genetically obese normoglycemic (Zucker or Fa/Fa) or diabetic (ZDF)] were caged individually in stainless steel hanging cages and maintained in a 22° C., 50±10% relative humidity and 12 h:12 h light:dark environment. All animals were fed ad libitum with a standard rat chow (Safe A04, Villemoisson, France) and tap water. Body mass and food intake were recorded twice/thrice a week and fresh food was provided, at the same time to ensure minimal disturbance to the animals' food, behavior.
(§2) Eight-week old rats (300 g±10 g) were anesthetized by simultaneous intraperitoneal injection of diazepam 4 mg/kg and ketamine 100 mg/kg. In order to maintain body temperature during the surgery (10 min), animals were placed on a warm blanket. After interscapular shaving, a small incision of 0.5 cm of the skin allows the subcutaneous implantation of a small pellet (containing rT3 or 3′,3-T2) with a 10-gauge precision trochar. The pellets, manufactured by Innovative Research of America (Sarasota, Fla., USA) are constituted of a biodegradable matrix that effectively and continuously release the active product in the animal.
(§3) 3-5 diiodothyronine (3-5 T2) or 3-3′diiodothyronine (3-3′ T2) were used at different doses (5, 0.5, or 0.1 mg/pellet) were implanted in order to provide a continuous and constant drug delivery over 60 days (which represents 25 μg, 2.5 μg or 0.5 μg/day/100 g BW).

[5] = Body weight and food intake of Zucker rats; format: in vivo; conditions: Zucker (Fa/Fa) rats, 30 days, FIG. 8 legend high dosage 25 μg/100 g BW
Method: as §1
as §2, with “animal. […]” for “animal.”

[6] = Growth rate (body weight) of Wistar rats with subcutaneous continuous-release pellet; format: in vivo
Method: as §1, §2, §3

[7] = normal rats, high-fat diet, daily peritoneal injection; cited from earlier work

## N[C@@H](Cc1cc(I)c(Oc2ccc(O)cc2)c(I)c1)C(=O)O [3,5-T2, 3,5-diiodothyronine]
[1]; high dosage 25 μg/100 g BW
  Brown adipose tissue weight vs placebo: significantly increased
  Fat masses, all localizations (retroperitoneal, epididymal, mesenteric, subcutaneous) vs placebo: significantly lower
  Muscle mass / lean body mass vs placebo: not affected at all
[1]; low dosage 2.5 μg/100 g BW
  Fat mass vs placebo: significantly decreased
  Lean body mass vs placebo: not affected
[2]
  Respiratory quotient (RQ) vs placebo: lower than RQ with placebo treatment during the day and the first part of the night
[3]
  Change in blood glucose concentration as compared to control animals: −24±6%
[4]; high dosage 25 μg/100 g BW
  Food intake vs placebo: a clear increase was observed
[4]; low dosage 2.5 μg/100 g BW
  Food intake vs placebo: almost not affect
[5]
  Food intake vs placebo: significantly lower as compared to placebo
[5]; text says low 3,5-T2 group
  Animal growth (body weight) vs placebo: no significant growth
[6]; high dosage 25 μg/100 g BW
  Growth rate (body weight gain) vs placebo: did not show similar weight gain; also recorded: a biphasic curve was observed with a weight gain between the 10th and the 15th day
[6]; low dosage 2.5 μg/100 g BW
  Growth rate (body weight gain) vs placebo: the body mass did not change
[7]
  Fat deposit vs untreated rats: less fat deposit
  Weight gain vs untreated rats: gained less weight
